Measured values as given in publication PMC2922070 (Journal of peptide science : an official publication of the …, 2009).

Tests used:
Assay type in all cases: biochemical
[1] = target: T1, MK2 (Homo sapiens, UniProt P49137); experiment: Fluorescence-based kinase activity assay
[2] = target: T1, MK2; experiment: Radiometric kinase activity; conditions: ± S.D. between two samples, SD
[3] = target: MK3 (Homo sapiens, UniProt Q16644); experiment: Radiometric kinase activity; conditions: ± S.D. between two samples, SD
[4] = target: T2, MK5 (Homo sapiens, UniProt Q8IW41); experiment: Radiometric kinase activity; conditions: ± S.D. between two samples, SD
T2 sequence (Q8IW41 1-473): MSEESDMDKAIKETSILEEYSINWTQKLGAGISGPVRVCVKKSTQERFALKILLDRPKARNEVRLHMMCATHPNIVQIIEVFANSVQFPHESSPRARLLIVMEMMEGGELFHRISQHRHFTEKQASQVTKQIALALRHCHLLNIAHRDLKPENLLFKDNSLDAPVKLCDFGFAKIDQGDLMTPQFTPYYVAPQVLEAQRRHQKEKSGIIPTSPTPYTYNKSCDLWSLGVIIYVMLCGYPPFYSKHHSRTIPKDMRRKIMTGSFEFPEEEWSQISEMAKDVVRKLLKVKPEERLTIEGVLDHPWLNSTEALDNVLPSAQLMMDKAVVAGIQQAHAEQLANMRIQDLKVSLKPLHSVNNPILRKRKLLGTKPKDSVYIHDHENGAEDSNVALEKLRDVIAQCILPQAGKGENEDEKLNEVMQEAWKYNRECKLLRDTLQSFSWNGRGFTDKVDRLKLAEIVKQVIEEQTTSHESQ

[5] = target: MLCK (Homo sapiens, UniProt Q9H1R3); experiment: Radiometric kinase activity; conditions: ± S.D. between two samples, SD
[6] = target: PKBβ (Homo sapiens, UniProt P31751); experiment: Radiometric kinase activity; conditions: SD; for Percentage kinase activity, PKBβ: peptide 300 μM, ± S.D. between two samples
[7] = target: CaMKI (Homo sapiens, UniProt Q14012); experiment: Radiometric kinase activity; conditions: ± S.D. between two samples, SD
[8] = target: SAPK2a (p38α) (Homo sapiens, UniProt Q16539); experiment: Radiometric kinase activity; conditions: ± S.D. between two samples, SD
[9] = target: T3, IRAK4 (Homo sapiens, UniProt Q9NWZ3); experiment: Radiometric kinase activity; conditions: ± S.D. between two samples, SD
T3 sequence (Q9NWZ3 1-460): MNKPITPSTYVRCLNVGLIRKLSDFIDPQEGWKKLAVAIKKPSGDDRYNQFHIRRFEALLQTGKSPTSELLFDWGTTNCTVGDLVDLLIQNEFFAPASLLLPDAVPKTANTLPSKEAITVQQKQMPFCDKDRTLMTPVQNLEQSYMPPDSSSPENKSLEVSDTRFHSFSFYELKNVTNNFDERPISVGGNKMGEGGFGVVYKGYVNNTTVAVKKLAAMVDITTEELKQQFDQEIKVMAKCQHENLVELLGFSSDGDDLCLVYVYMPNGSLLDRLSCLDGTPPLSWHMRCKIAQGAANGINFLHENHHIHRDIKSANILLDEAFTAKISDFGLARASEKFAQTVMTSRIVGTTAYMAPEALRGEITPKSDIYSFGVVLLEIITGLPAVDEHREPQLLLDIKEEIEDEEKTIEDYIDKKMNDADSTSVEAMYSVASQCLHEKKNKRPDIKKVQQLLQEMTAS

[10] = target: PKCδ (Homo sapiens, UniProt Q05655); experiment: Radiometric kinase activity; conditions: ± S.D. between two samples, SD
[11] = target: ROCK-I (Homo sapiens, UniProt Q13464); experiment: Radiometric kinase activity; conditions: ± S.D. between two samples, SD
[12] = target: T1, MK2; experiment: Radiometric IC50 determination
[13] = read-out: Percentage kinase activity, PKBβ

ROCK-I, sequence (Q13464 whole entry): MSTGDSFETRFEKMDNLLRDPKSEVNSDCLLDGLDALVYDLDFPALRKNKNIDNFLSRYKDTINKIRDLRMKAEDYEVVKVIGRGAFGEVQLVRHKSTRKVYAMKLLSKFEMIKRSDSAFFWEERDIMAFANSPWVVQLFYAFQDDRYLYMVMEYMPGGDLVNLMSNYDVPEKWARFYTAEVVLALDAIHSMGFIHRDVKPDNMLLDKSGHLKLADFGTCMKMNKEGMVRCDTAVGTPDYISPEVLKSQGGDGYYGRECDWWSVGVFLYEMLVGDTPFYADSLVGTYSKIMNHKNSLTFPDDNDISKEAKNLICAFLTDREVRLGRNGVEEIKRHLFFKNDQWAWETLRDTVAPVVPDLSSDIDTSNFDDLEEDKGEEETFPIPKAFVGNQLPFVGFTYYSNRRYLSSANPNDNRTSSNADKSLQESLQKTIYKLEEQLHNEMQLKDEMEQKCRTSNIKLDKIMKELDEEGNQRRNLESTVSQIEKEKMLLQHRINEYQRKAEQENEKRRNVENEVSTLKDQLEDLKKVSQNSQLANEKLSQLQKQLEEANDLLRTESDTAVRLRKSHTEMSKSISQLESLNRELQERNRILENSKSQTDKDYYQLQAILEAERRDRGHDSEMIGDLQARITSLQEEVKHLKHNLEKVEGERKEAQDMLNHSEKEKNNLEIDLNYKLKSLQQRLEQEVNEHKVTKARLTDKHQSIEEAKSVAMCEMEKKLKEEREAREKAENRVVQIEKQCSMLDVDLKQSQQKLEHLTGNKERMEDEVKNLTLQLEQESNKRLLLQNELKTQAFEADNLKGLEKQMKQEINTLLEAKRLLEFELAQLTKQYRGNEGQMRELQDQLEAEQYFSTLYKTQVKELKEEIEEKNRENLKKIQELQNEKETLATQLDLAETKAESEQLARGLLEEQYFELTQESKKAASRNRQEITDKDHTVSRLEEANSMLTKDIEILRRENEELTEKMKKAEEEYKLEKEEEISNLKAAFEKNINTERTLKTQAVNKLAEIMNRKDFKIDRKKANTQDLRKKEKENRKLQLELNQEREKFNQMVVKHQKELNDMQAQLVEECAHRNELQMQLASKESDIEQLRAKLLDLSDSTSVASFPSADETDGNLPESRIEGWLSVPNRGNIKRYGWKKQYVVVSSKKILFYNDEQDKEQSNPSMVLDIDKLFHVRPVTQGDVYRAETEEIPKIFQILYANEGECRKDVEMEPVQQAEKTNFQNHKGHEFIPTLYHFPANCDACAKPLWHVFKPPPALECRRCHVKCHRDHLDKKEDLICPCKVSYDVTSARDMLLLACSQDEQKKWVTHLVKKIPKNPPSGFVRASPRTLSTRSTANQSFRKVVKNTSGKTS
PKCδ, sequence (Q05655 whole entry): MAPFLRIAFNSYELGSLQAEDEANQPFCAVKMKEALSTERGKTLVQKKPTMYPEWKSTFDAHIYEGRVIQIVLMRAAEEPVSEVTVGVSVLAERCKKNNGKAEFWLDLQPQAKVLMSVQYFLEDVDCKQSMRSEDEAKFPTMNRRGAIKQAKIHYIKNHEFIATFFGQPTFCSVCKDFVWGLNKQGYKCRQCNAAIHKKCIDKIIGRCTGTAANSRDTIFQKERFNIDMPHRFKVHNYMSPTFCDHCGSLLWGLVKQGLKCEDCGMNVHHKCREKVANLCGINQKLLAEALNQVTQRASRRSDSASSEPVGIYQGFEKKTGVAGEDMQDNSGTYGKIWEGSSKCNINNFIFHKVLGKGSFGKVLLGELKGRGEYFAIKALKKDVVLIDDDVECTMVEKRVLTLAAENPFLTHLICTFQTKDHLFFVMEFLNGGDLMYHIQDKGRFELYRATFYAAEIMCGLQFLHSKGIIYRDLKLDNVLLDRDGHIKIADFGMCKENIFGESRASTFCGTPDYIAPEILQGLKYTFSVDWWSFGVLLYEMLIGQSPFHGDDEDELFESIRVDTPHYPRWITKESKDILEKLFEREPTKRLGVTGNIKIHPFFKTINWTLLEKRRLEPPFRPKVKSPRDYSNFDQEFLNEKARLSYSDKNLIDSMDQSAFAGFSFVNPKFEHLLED
MK3, sequence (Q16644 whole entry): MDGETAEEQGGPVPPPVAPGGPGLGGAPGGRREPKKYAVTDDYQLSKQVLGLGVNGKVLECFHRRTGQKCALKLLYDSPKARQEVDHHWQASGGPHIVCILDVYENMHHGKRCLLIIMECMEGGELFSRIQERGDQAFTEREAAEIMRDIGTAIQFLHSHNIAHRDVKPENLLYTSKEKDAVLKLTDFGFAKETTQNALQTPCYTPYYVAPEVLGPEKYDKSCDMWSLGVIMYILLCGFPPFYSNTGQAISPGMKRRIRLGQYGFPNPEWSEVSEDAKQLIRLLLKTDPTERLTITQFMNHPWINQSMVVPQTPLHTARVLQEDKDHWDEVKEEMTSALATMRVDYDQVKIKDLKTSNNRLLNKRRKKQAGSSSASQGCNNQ
CaMKI, sequence (Q14012 whole entry): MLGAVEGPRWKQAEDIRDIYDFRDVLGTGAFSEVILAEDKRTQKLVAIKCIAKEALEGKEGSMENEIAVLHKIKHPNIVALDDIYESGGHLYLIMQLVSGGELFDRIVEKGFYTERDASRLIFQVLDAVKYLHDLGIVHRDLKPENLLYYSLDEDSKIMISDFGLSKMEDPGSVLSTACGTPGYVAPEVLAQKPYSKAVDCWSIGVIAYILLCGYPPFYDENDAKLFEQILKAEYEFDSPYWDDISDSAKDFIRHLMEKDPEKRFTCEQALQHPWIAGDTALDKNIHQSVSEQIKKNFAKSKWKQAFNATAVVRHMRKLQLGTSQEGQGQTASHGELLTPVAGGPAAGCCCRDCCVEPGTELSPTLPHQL
MLCK, sequence (Q9H1R3 2-596): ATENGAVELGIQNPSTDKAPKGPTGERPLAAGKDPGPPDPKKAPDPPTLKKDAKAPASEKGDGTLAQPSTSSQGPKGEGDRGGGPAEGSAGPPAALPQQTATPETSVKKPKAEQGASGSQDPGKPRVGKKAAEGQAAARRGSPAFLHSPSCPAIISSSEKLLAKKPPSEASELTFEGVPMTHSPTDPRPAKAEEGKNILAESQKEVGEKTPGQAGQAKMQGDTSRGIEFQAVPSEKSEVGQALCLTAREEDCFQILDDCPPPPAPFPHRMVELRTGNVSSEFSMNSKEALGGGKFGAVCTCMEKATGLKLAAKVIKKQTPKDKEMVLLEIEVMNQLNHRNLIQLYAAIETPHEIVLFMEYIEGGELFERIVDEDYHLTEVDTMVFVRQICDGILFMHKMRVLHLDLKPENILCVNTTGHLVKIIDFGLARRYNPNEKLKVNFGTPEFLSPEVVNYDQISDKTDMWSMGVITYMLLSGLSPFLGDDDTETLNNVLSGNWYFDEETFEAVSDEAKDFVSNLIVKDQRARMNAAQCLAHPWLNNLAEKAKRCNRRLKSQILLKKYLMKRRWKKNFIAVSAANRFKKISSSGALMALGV
PKBβ, sequence (P31751 whole entry): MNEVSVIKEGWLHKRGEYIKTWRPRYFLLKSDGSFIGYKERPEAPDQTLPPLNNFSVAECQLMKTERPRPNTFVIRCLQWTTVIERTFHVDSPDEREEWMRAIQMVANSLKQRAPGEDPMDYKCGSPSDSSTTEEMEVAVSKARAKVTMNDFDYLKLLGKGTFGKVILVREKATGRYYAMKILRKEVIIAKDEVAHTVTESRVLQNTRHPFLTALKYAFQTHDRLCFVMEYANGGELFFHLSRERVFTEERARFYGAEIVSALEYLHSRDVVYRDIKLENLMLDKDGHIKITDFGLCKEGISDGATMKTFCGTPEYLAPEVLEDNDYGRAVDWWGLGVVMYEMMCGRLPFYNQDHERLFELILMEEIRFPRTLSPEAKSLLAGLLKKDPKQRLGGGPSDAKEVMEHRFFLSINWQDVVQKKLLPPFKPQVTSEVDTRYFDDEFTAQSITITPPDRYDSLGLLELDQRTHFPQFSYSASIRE
T1 sequence (P49137 whole entry): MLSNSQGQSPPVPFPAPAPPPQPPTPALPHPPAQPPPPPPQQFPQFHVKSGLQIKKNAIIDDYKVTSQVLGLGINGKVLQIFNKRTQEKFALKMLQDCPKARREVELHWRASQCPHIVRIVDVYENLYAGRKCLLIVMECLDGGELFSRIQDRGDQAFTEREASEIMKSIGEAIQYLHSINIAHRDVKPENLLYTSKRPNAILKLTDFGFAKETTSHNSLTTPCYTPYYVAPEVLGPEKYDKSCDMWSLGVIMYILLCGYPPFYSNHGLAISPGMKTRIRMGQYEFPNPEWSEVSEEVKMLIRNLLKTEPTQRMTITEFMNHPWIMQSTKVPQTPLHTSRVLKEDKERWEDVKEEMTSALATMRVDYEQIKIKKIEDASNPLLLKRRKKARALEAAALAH
SAPK2a (p38α), sequence (Q16539 whole entry): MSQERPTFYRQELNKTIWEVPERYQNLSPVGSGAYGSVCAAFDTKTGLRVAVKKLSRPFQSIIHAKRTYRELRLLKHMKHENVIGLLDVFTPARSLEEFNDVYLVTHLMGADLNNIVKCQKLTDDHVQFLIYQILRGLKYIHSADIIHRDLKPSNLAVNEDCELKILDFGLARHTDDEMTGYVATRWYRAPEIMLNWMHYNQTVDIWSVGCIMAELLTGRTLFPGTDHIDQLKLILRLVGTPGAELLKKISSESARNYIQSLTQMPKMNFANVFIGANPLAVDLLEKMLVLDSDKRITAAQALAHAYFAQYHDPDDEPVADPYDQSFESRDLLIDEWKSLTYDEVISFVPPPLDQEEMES

Molecule	Percentage kinase activity, MK2 ([2]; peptide 300 μM) [%]	Percentage kinase activity, MK3 ([3]; peptide 300 μM) [%]	Percentage kinase activity, MK5 ([4]; peptide 300 μM) [%]	Percentage kinase activity, PKBβ [6] [%]	IC50 [12] [nM]	Percentage kinase activity, MK2 ([2]; peptide 100 μM) [%]	Percentage kinase activity, MK3 ([3]; peptide 100 μM) [%]	Percentage kinase activity, CaMKI ([7]; peptide 100 μM) [%]	Percentage kinase activity, MK5 ([4]; peptide 100 μM) [%]	Percentage kinase activity, SAPK2a (p38α) ([8]; peptide 100 μM) [%]	Percentage kinase activity, IRAK4 ([9]; peptide 100 μM) [%]	Percentage kinase activity, MLCK ([5]; peptide 100 μM) [%]	activity at 100 µM [6, 13] [%]	Percentage kinase activity, PKCδ ([10]; peptide 100 μM) [%]	Percentage kinase activity, ROCK-I ([11]; peptide 100 μM) [%]	also measured
YGRKKRRQRRR																inhibition of MK2 activity ([1]; peptide 25 μM): 47.7%; inhibition of MK2 activity ([1]; peptide 100 μM): 61.2%
YARAAARQARAKALARQLGVAA	0 ± 0	5 ± 1	86 ± 2	17 ± 2												Percentage kinase activity, MLCK ([5]; peptide 300 μM): 9 ± 0%
YARAAARQARAKALNRQLGVAA	10 ± 3	19 ± 3	81 ± 3	96 ± 1												Percentage kinase activity, CaMKI ([7]; peptide 300 μM): 8 ± 1%; Percentage kinase activity, SAPK2a (p38α) ([8]; peptide 300 μM): 100 ± 6%; Percentage kinase activity, IRAK4 ([9]; peptide 300 μM): 68 ± 3%; Percentage kinase activity, PKCδ ([10]; peptide 300 μM): 105 ± 2%; Percentage kinase activity, ROCK-I ([11]; peptide 300 μM): 95 ± 7%
CC[C@H](C)[C@H](NC(=O)[C@H](CCCNC(=N)N)NC(=O)[C@H](CCCNC(=N)N)NC(=O)[C@H](CC(C)C)NC(=O)[C@H](Cc1c[nH]c2ccccc12)NC(=O)[C@H](C)NC(=O)[C@H](CCCCN)NC(=O)[C@@H](NC(=O)[C@H](CCCNC(=N)N)NC(=O)[C@H](CCCNC(=N)N)NC(=O)[C@H](CC(C)C)NC(=O)[C@@H](N)Cc1c[nH]c2ccccc12)[C@@H](C)CC)C(=O)N[C@@H](CCCCN)C(=O)N[C@@H](C)C(=O)N[C@@H](CC(C)C)C(=O)N[C@@H](CC(N)=O)C(=O)N[C@@H](CCCNC(=N)N)C(=O)N[C@@H](CCC(N)=O)C(=O)N[C@@H](CC(C)C)C(=O)NCC(=O)N[C@H](C(=O)N[C@@H](C)C(=O)N[C@@H](C)C(N)=O)C(C)C					740											Percentage kinase activity, MK2 ([2]; peptide 30 μM): 2 ± 1%; Percentage kinase activity, MK3 ([3]; peptide 30 μM): 16 ± 2%; Percentage kinase activity, CaMKI ([7]; peptide 30 μM): 9 ± 1%; Percentage kinase activity, MK5 ([4]; peptide 30 μM): 67 ± 9%; Percentage kinase activity, SAPK2a (p38α) ([8]; peptide 30 μM): 61 ± 7%; Percentage kinase activity, IRAK4 ([9]; peptide 30 μM): 12 ± 1%; Percentage kinase activity, MLCK ([5]; peptide 30 μM): 4 ± 1%; activity at 30 µM [6, 13]: 18 ± 2%; Percentage kinase activity, PKCδ ([10]; peptide 30 μM): 11 ± 0%; Percentage kinase activity, ROCK-I ([11]; peptide 30 μM): 0 ± 1%
CC(C)C[C@H](NC(=O)[C@H](C)NC(=O)[C@H](CCCCN)NC(=O)[C@H](CCCNC(=N)N)NC(=O)[C@H](Cc1ccc(O)cc1)NC(=O)[C@H](CC(C)C)NC(=O)[C@H](CCCNC(=N)N)NC(=O)[C@H](C)NC(=O)[C@H](C)NC(=O)[C@H](CC(C)C)NC(=O)[C@H](CCCCN)NC(=O)[C@H](C)NC(=O)[C@@H](N)Cc1ccccc1)C(=O)N[C@@H](C)C(=O)N[C@@H](CCCNC(=N)N)C(=O)N[C@@H](CCC(N)=O)C(=O)N[C@@H](CC(C)C)C(=O)NCC(=O)N[C@H](C(=O)N[C@@H](C)C(=O)N[C@@H](C)C(N)=O)C(C)C					1800	5 ± 2	10 ± 1	0 ± 2	131 ± 4	30 ± 6	13 ± 4	1 ± 1	16 ± 5	40 ± 2	25 ± 2	
CC(C)C[C@H](NC(=O)[C@H](C)NC(=O)[C@H](CCCCN)NC(=O)[C@H](CCCNC(=N)N)NC(=O)[C@H](Cc1ccc(O)cc1)NC(=O)[C@H](CC(C)C)NC(=O)[C@H](CCCNC(=N)N)NC(=O)[C@H](C)NC(=O)[C@H](C)NC(=O)[C@H](CC(C)C)NC(=O)[C@H](CCCCN)NC(=O)[C@H](C)NC(=O)[C@H](Cc1ccccc1)NC(=O)[C@H](C)NC(=O)[C@@H](N)CCCCN)C(=O)N[C@@H](C)C(=O)N[C@@H](CCCNC(=N)N)C(=O)N[C@@H](CCC(N)=O)C(=O)N[C@@H](CC(C)C)C(=O)NCC(=O)N[C@H](C(=O)N[C@@H](C)C(=O)N[C@@H](C)C(N)=O)C(C)C					4400	8 ± 1	17 ± 1	0 ± 2	148 ± 4	59 ± 8	16 ± 2	2 ± 0	28 ± 4	24 ± 3	29 ± 0	
